Publication PMC9738062, “Selectively Halogenated Flavonolignans—Preparation and Antibacterial Activity” (International Journal of Molecular Sciences, 2022)

Assays:
[1] = tested on: Vibrio campbellii BAA 1118 (AI-1); assay: Viability of the quorum-sensing reporter culture (resazurin assay), AI-1 strain; assay type: cell-based; settings: BAA1118, V. campbellii BAA 1118, resazurin assay, read-out: IC50 (concentration that halved the viability)
Summary of the method: (§1)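 Mutant V. campbellii strains responding only to AI-1 (BAA-1118) or AI-2 (BAA-1119), seeded at 5 × 10^5 CFU/mL in Autoinducer Bioassay medium (potassium phosphate pH 7.0); compounds at final 0.2–200 µM.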

[2] = tested on: P. aeruginosa (CCM, 3955); assay: Inhibition of biofilm formation (surface colonization); assay type: cell-based; settings: Pseudomonas aeruginosa; highest tested concentration 100 µM
Experimental: Biofilm formation is a fully organized, multistep process in which bacteria are constantly communicating with each other.
The activity of derivatives on biofilms was tested with S. aureus (ATCC, 25923) and P. aeruginosa (CCM, 3955), according to the previously described method. The highest tested concentration of derivatives was 100 µM. The activity was evaluated using an IC50 comparison between the parent compound and its derivative.

[3] = tested on: Vibrio campbellii BAA 1118 (AI-1); assay: microbe, parasite or virus in culture; assay type: cell-based; settings: for EC50: Vibrio campbellii, BAA1118, 16 h, read-out: EC50 (concentration that halved the communication); for SI (selectivity index): ratio IC50 (viability) / EC50 (communication), BAA 1118
Summary of the method: as §1

[4] = tested on: Vibrio campbellii BAA 1119 (AI-2); assay: microbe, parasite or virus in culture; assay type: cell-based; settings: for EC50: Vibrio campbellii, BAA1119, 16 h, read-out: EC50 (concentration that halved the communication); for SI (selectivity index): ratio IC50 (viability) / EC50 (communication), BAA 1119
Summary of the method: as §1

[5] = Folin-Ciocalteu reagent reduction; settings: gallic acid equivalents
Summary of the method: (§2)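 ABTS and DPPH radical scavenging gauged antiradical activity. Reducing capacity was measured as reduction of Folin–Ciocalteu reagent and of ferric ions (FRAP).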

[6] = ABTS cation radical scavenging; settings: vitamin C equivalent antioxidant capacity
Summary of the method: as §2

[7] = Ferric reducing antioxidant power (FRAP); settings: Fe2+ equivalents
Summary of the method: as §2

DPPH radical scavenging = settings: 1,1-diphenyl-2-picrylhydrazyl radical scavenging
Summary of the method: as §2

[8] = tested on: murine macrophages (RAW 264.7); assay: Cell viability in the nitric oxide assay (resazurin assay); assay type: cell-based; settings: RAW 264.7, nitric oxide assay
Experimental: The anti-inflammatory activity of the tested flavonolignans was determined as the ability to reduce nitric oxide production by murine macrophages (RAW 264.7) stimulated by bacterial lipopolysaccharides, as previously described. […] For the experiment, 1 × 10^6 cells/mL was seeded into the 96-well plate (100 µL/well). […] After 24 h, the medium was mixed with Griess reagent (0.04 g/mL), prepared freshly in deionized water at the ratio of 1:1. The absorbance was measured after 15 min at 540 nm by the SpectraMax i3x microplate reader. Cell viability was determined by resazurin assay.

COc1cc([C@H]2Oc3cc([C@H]4Oc5cc(O)cc(O)c5C(=O)[C@@H]4O)ccc3O[C@@H]2CO)ccc1O [3a, silybin A, reference compound]
IC50 [1]: 131 ± 3.7 µM | IC50 [2]: 77 µM | EC50 [3]: 97.1 ± 1 µM | SI (selectivity index) [3]: 1.3 ± 0.1 | EC50 [4]: 17.1 ± 0.5 µM | SI (selectivity index) [4]: 7.0 ± 0.4 | FCR [GAE] [5]: 1.35 ± 0.06 GAE | ABTS [CEAC] [6]: 0.50 ± 0.03 CEAC | FRAP [Fe2+eq] [7]: 0.071 ± 0.003 Fe2+eq | IC50 (DPPH radical scavenging): 322 µM

COc1cc([C@@H]2Oc3cc([C@H]4Oc5cc(O)cc(O)c5C(=O)[C@@H]4O)ccc3O[C@H]2CO)ccc1O [3b, silybin B, reference compound]
IC50 [1]: 116.6 ± 0.9 µM | IC50 [2]: 105 µM | EC50 [3]: 121.5 ± 0.6 µM | SI (selectivity index) [3]: 0.96 ± 0.01 | EC50 [4]: 22.3 ± 0.5 µM | SI (selectivity index) [4]: 6.8 ± 0.2 | FCR [GAE] [5]: 1.39 ± 0.08 GAE | ABTS [CEAC] [6]: 0.55 ± 0.05 CEAC | FRAP [Fe2+eq] [7]: 0.078 ± 0.004 Fe2+eq | IC50 (DPPH radical scavenging): 259 µM

COc1cc([C@@H]2Oc3c(O)cc([C@H]4Oc5cc(O)cc(O)c5C(=O)[C@@H]4O)cc3[C@H]2CO)ccc1O [compound 5, silychristin A, reference compound]
IC50 [1]: > 200 µM | IC50 [2]: 73 µM | EC50 [3]: > 200 µM | EC50 [4]: > 200 µM | FCR [GAE] [5]: 1.87 ± 0.07 GAE | ABTS [CEAC] [6]: 1.73 ± 0.02 CEAC | FRAP [Fe2+eq] [7]: 0.25 ± 0.02 Fe2+eq | IC50 (DPPH radical scavenging): 47.2 µM

COc1cc([C@H]2Oc3cc([C@H]4Oc5c(Br)c(O)c(Br)c(O)c5C(=O)[C@@H]4O)ccc3O[C@@H]2CO)ccc1O [compound 12, 6,8-dibromosilybin A]
IC50 [1]: 23.5 ± 1 µM | EC50 [3]: 12.2 ± 0.4 µM | SI (selectivity index) [3]: 1.9 ± 0.2 | EC50 [4]: 13.2 ± 0.3 µM | SI (selectivity index) [4]: 6.1 ± 0.5 | FCR [GAE] [5]: 0.85 ± 0.03 GAE | ABTS [CEAC] [6]: 0.30 ± 0.04 CEAC | FRAP [Fe2+eq] [7]: 0.084 ± 0.004 Fe2+eq | IC50 (DPPH radical scavenging): 383 µM

COc1cc([C@@H]2Oc3cc([C@H]4Oc5cc(O)c(Br)c(O)c5C(=O)[C@@H]4O)ccc3O[C@H]2CO)ccc1O [compound 13, 6-Bromosilybin B]
IC50 [1]: 16.1 ± 0.1 µM | EC50 [3]: 14.5 ± 0.5 µM | SI (selectivity index) [3]: 1.11 ± 0.04 | EC50 [4]: 26.1 ± 1.3 µM | SI (selectivity index) [4]: 2.0 ± 0.1 | FCR [GAE] [5]: 1.17 ± 0.04 GAE | ABTS [CEAC] [6]: 0.75 ± 0.02 CEAC | FRAP [Fe2+eq] [7]: 0.063 ± 0.001 Fe2+eq | IC50 (DPPH radical scavenging): 354 µM

COc1cc([C@@H]2Oc3cc([C@H]4Oc5c(Br)c(O)c(Br)c(O)c5C(=O)[C@@H]4O)ccc3O[C@H]2CO)ccc1O [compound 14, 6,8-dibromosilybin B]
IC50 [1]: 16.6 ± 0.8 µM | EC50 [3]: 14.7 ± 0.7 µM | SI (selectivity index) [3]: 1.1 ± 0.1 | EC50 [4]: 19.3 ± 0.5 µM | SI (selectivity index) [4]: 3.1 ± 0.3 | FCR [GAE] [5]: 1.10 ± 0.05 GAE | ABTS [CEAC] [6]: 0.35 ± 0.04 CEAC | FRAP [Fe2+eq] [7]: 0.081 ± 0.004 Fe2+eq | IC50 (DPPH radical scavenging): 256 µM

COc1cc(C2Oc3cc(-c4oc5c(Br)c(O)cc(O)c5c(=O)c4O)ccc3OC2CO)ccc1O (stereo not drawn) [compound 16, 8-bromo-2,3-dehydrosilybin AB]
IC50 [1]: > 200 µM | Concentration above which the cell viability decreased [8]: > 25 µM | EC50 [3]: > 200 µM | EC50 [4]: 6.9 ± 0.3 µM | SI (selectivity index) [4]: 12.7 ± 1.0 | FCR [GAE] [5]: 1.56 ± 0.03 GAE | ABTS [CEAC] [6]: 1.15 ± 0.03 CEAC | FRAP [Fe2+eq] [7]: 0.19 ± 0.01 Fe2+eq | IC50 (DPPH radical scavenging): 13.4 µM

COc1cc([C@@H]2Oc3c(O)cc(-c4oc5c(Br)c(O)cc(O)c5c(=O)c4O)cc3[C@H]2CO)ccc1O [compound 18, 8-Bromo-2,3-dehydrosilychristin A]
IC50 [1]: 80.1 ± 1.7 µM | EC50 [3]: 29.4 ± 0.7 µM | SI (selectivity index) [3]: 2.7 ± 0.1 | EC50 [4]: 10.5 ± 0.2 µM | SI (selectivity index) [4]: 2.2 ± 0.1 | FCR [GAE] [5]: 2.22 GAE | ABTS [CEAC] [6]: 1.41 CEAC | FRAP [Fe2+eq] [7]: 0.90 Fe2+eq | IC50 (DPPH radical scavenging): 11.1 ± 0.6 µM

COc1cc([C@H]2Oc3cc([C@H]4Oc5c(Br)c(O)c(Br)c(O)c5C(=O)[C@@H]4O)ccc3O[C@@H]2CO)cc(Br)c1O [compound 21, 6,8,21-tribromosilybin A]
IC50 [1]: > 200 µM | EC50 [3]: > 200 µM | EC50 [4]: 30.7 ± 1.6 µM | SI (selectivity index) [4]: ≥6.5 ± 0.3 | FCR [GAE] [5]: 0.99 ± 0.02 GAE | ABTS [CEAC] [6]: 0.12 ± 0.02 CEAC | FRAP [Fe2+eq] [7]: 0.079 ± 0.002 Fe2+eq | IC50 (DPPH radical scavenging): 375 µM

COc1cc([C@@H]2Oc3cc([C@H]4Oc5c(Br)c(O)c(Br)c(O)c5C(=O)[C@@H]4O)ccc3O[C@H]2CO)cc(Br)c1O [compound 22, 6,8,21-tribromosilybin B]
IC50 [1]: 7.3 ± 0.1 µM | EC50 [3]: 4.3 ± 0.3 µM | SI (selectivity index) [3]: 1.7 ± 0.1 | EC50 [4]: 12 ± 0.5 µM | SI (selectivity index) [4]: 2.9 ± 0.3 | FCR [GAE] [5]: 1.01 ± 0.04 GAE | ABTS [CEAC] [6]: 0.17 ± 0.01 CEAC | FRAP [Fe2+eq] [7]: 0.062 ± 0.002 Fe2+eq | IC50 (DPPH radical scavenging): 238 µM
